The structures appear in SMILES notation.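 Five concentrations, 48 hours, 96-well plates. Definition used: TGI = concentration required for complete inhibition of growth.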

Among the test systems are BT-549 breast; COLO 205 colon; LOX IMVI melanoma; SF-295 CNS; HL-60(TB) leukemia; OVCAR-4 ovarian; DU-145 prostate; MALME-3M melanoma; SK-MEL-5 melanoma; HCT-15 colon; NCI-H522 lung; ACHN renal; T-47D breast; K-562 leukemia; SK-MEL-2 melanoma; A549 NSCLC; OVCAR-8 ovarian; TK-10 renal; OVCAR-3 ovarian.
Holding throughout (assay): NCI-60 cell line screen, 48 h

On to `S=C1SSC2N=CC=CC12` (stereo not drawn), for which the TGI was more than 100 µM in the experiment with BT-549 breast; more than 100 µM in the experiment on COLO 205 colon; more than 100 µM in the experiment on LOX IMVI melanoma; more than 100 µM with SF-295 CNS; more than 100 µM in the experiment on HL-60(TB) leukemia; 34.2 µM with OVCAR-4 ovarian. In addition, the TGI in the experiment on DU-145 prostate, with MALME-3M melanoma, with SK-MEL-5 melanoma, with HCT-15 colon, with NCI-H522 lung and in the experiment with ACHN renal was more than 100 µM in each case. The TGI in the experiment on T-47D breast, in the experiment with K-562 leukemia, with SK-MEL-2 melanoma, in the experiment with A549 NSCLC, with OVCAR-8 ovarian and with TK-10 renal was more than 100 µM each time. The same compound had a TGI with OVCAR-3 ovarian of more than 100 µM.
On to `CC1CC[C@@]2(OC1)OC1C[C@H]3[C@@H]4CC[C@H]5CC(OC6OC(CO)C(O)C(OC7OC(CO)C(OC8OC(CO)C(O)C(OC9OC(CO)C(O)C(O)C9O)C8OC8OC(CO)C(O)C(O)C8O)C(O)C7O)C6O)[C@H](O)CC5(C)[C@H]4CCC3(C)C1[C@@H]2C` (stereo partly drawn), for which the TGI came to 10.5 µM in the experiment on BT-549 breast; 6.04 µM in the experiment with COLO 205 colon; 9.05 µM with LOX IMVI melanoma; 9.39 µM in the experiment on SF-295 CNS; 9.3 µM in the experiment with HL-60(TB) leukemia; 9.55 µM with OVCAR-4 ovarian. Moreover, the TGI came to 12.1 µM with DU-145 prostate; 15.1 µM with MALME-3M melanoma; 13.6 µM in the experiment with SK-MEL-5 melanoma; 19.3 µM in the experiment on HCT-15 colon; 5.35 µM with NCI-H522 lung; 7.4 µM in the experiment on ACHN renal. For the same compound, the TGI came to 4.58 µM with T-47D breast; 12.4 µM with K-562 leukemia; 9.78 µM in the experiment on SK-MEL-2 melanoma; 21.6 µM with A549 NSCLC; 6.67 µM with OVCAR-8 ovarian; 11.8 µM with TK-10 renal. The TGI in the experiment with OVCAR-3 ovarian stood at 1.93 µM.
On to `CC(=O)N(CCc1ccccc1)C(C#N)c1ccccc1` (stereo not drawn), for which the TGI in the experiment with BT-549 breast, with COLO 205 colon, in the experiment on LOX IMVI melanoma, in the experiment on SF-295 CNS, in the experiment with HL-60(TB) leukemia and in the experiment on OVCAR-4 ovarian was more than 100 µM throughout. In addition, the TGI in the experiment on DU-145 prostate, in the experiment with MALME-3M melanoma, with SK-MEL-5 melanoma, in the experiment on HCT-15 colon, in the experiment on NCI-H522 lung and in the experiment with ACHN renal was more than 100 µM throughout. For the same compound, the TGI in the experiment on T-47D breast, in the experiment with K-562 leukemia, in the experiment with SK-MEL-2 melanoma, with A549 NSCLC, in the experiment with OVCAR-8 ovarian and in the experiment on TK-10 renal was more than 100 µM in each case. In the experiment with OVCAR-3 ovarian, the TGI was more than 100 µM.
Regarding `Cc1nn(C(=O)c2ccc(Cl)cc2)c2c1C(/C=C/c1ccccc1)SC(N)=N2` (stereo not drawn), the TGI in the experiment with BT-549 breast, in the experiment with COLO 205 colon, in the experiment on LOX IMVI melanoma, in the experiment with SF-295 CNS, with HL-60(TB) leukemia and in the experiment with OVCAR-4 ovarian was more than 10 µM throughout. For the same compound, the TGI in the experiment with DU-145 prostate, in the experiment on MALME-3M melanoma, in the experiment on SK-MEL-5 melanoma, in the experiment with HCT-15 colon, in the experiment on NCI-H522 lung and with ACHN renal was more than 10 µM each time. For the same compound, the TGI in the experiment on T-47D breast, in the experiment on K-562 leukemia, in the experiment on SK-MEL-2 melanoma, with A549 NSCLC, in the experiment with OVCAR-8 ovarian and in the experiment with TK-10 renal was more than 10 µM each time. Also, the TGI in the experiment on OVCAR-3 ovarian was more than 10 µM.
Turning to `CN1CCc2c(sc3ncn(C)c(=N)c23)C1`, the TGI in the experiment with BT-549 breast, in the experiment with COLO 205 colon, in the experiment on LOX IMVI melanoma, in the experiment on SF-295 CNS, with HL-60(TB) leukemia and in the experiment with OVCAR-4 ovarian was more than 100 µM in each case. For the same compound, the TGI in the experiment with DU-145 prostate, in the experiment with MALME-3M melanoma, with SK-MEL-5 melanoma, in the experiment on HCT-15 colon, in the experiment with NCI-H522 lung and with ACHN renal was more than 100 µM in each case. The TGI with T-47D breast, with K-562 leukemia, in the experiment with SK-MEL-2 melanoma, with A549 NSCLC, in the experiment with OVCAR-8 ovarian and in the experiment with TK-10 renal was more than 100 µM each time. The same compound had a TGI in the experiment with OVCAR-3 ovarian of more than 100 µM.
Regarding `CC(C(=O)OCc1ccccc1)(c1ccco1)N1C(=O)OC(c2ccccc2)C1c1ccccc1` (stereo not drawn), the TGI in the experiment on BT-549 breast, in the experiment on COLO 205 colon, with LOX IMVI melanoma, in the experiment with SF-295 CNS, in the experiment with HL-60(TB) leukemia and in the experiment with OVCAR-4 ovarian was more than 100 µM in each case. Further, the TGI with DU-145 prostate, with MALME-3M melanoma, with SK-MEL-5 melanoma, in the experiment with HCT-15 colon, in the experiment on NCI-H522 lung and in the experiment with ACHN renal was more than 100 µM in each case. Also, the TGI with T-47D breast, in the experiment with K-562 leukemia, in the experiment with SK-MEL-2 melanoma, in the experiment on A549 NSCLC, in the experiment with OVCAR-8 ovarian and in the experiment on TK-10 renal was more than 100 µM throughout. In the experiment on OVCAR-3 ovarian, this compound gave a TGI of more than 100 µM.
Turning to `CC(=O)Oc1ccc2c(c1)c1c(=O)oc(C)nc1n2Cc1ccccc1`, the TGI is more than 66.3 µM in the experiment with BT-549 breast; more than 100 µM in the experiment on COLO 205 colon; more than 100 µM in the experiment on LOX IMVI melanoma; more than 100 µM in the experiment with SF-295 CNS; more than 100 µM in the experiment on HL-60(TB) leukemia; more than 100 µM with OVCAR-4 ovarian. The TGI in the experiment on DU-145 prostate is more than 100 µM; with MALME-3M melanoma it was more than 100 µM; in the experiment on SK-MEL-5 melanoma it was more than 100 µM; with HCT-15 colon, more than 100 µM; in the experiment with NCI-H522 lung it was 60.5 µM; in the experiment on ACHN renal it was more than 100 µM. Besides, the TGI is more than 100 µM with T-47D breast; more than 100 µM with K-562 leukemia; more than 71.6 µM with SK-MEL-2 melanoma; more than 100 µM with A549 NSCLC; more than 100 µM in the experiment with OVCAR-8 ovarian; more than 91.2 µM in the experiment on TK-10 renal. Further, the TGI in the experiment with OVCAR-3 ovarian was more than 100 µM.

(Values after PubChem BioAssay (NCI).)
